# According to BindingDB's records for doi:10.1016/j.bmc.2012.05.068 (Duquesne University, 2012):
# Experiments:
# [1] = molecular target: T1, Bifunctional dihydrofolate reductase-thymidylate synthase (Toxoplasma gondii, UniProt Q07422); assay: Inhibition of Toxoplasma gondii thymidylate synthase
# T1 sequence (Q07422 whole entry): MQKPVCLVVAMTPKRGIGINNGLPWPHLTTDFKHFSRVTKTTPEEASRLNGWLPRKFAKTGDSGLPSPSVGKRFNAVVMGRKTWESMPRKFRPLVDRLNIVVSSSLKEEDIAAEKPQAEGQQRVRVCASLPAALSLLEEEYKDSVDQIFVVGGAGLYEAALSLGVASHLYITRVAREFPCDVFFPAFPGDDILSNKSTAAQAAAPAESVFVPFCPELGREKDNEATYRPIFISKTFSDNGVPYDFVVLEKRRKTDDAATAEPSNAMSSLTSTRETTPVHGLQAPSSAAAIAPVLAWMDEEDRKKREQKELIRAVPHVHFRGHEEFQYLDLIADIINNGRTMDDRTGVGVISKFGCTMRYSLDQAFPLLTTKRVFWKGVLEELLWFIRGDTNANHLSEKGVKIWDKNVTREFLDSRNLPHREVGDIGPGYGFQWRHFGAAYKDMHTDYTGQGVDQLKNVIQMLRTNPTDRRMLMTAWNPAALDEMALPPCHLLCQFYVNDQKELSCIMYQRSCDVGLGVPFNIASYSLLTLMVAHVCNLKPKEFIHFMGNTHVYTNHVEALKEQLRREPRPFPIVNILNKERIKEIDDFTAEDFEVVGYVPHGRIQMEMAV
# Thymidylate synthase = Thymidylate synthase (Homo sapiens, UniProt P04818); assay: Inhibition of human thymidylate synthase
# Thymidylate synthase, sequence (P04818 whole entry): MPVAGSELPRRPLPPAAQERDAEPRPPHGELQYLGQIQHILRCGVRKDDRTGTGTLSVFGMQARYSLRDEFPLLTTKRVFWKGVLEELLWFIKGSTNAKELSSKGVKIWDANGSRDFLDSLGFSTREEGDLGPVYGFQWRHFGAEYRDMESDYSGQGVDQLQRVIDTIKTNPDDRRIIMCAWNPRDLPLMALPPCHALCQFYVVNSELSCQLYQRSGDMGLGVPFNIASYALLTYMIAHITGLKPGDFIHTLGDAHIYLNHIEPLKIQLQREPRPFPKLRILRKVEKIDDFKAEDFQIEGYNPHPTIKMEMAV
# [2] = molecular target: T1, Bifunctional dihydrofolate reductase-thymidylate synthase; assay: Inhibition of Toxoplasma gondii DHFR
# [3] = molecular target: Dihydroorotate dehydrogenase (quinone), mitochondrial (Homo sapiens, UniProt Q02127); assay: Inhibition of human DHODH
# Dihydroorotate dehydrogenase (quinone), mitochondrial, sequence (Q02127 whole entry): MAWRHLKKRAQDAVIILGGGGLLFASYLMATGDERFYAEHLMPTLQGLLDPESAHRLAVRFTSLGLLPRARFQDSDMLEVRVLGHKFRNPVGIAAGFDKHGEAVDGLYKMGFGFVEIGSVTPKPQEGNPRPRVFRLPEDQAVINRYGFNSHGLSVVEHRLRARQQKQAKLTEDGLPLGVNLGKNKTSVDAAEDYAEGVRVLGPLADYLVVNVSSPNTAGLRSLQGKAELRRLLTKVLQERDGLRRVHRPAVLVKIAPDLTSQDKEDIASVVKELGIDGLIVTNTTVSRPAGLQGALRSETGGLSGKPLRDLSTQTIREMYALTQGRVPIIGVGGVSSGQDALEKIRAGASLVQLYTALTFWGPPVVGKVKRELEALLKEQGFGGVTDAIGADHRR
SMILES,IC50 (Thymidylate synthase) [µM],IC50 [3] [µM],IC50 [1] [µM],IC50 [2] [µM]
Nc1nc2cc3ccccc3c-2c(Nc2ccc(Cl)cc2F)[nH]1,> 13,> 200,> 13,> 16
Nc1nc2cc3ccccc3c-2c(Nc2ccccc2)[nH]1,,> 200,,
Nc1nc2cc3ccccc3c-2c(Nc2ccc(Cl)cc2)[nH]1,> 14,> 200,> 14,> 16
Nc1nc2cc3ccccc3c-2c(Nc2ccc(F)c(Cl)c2)[nH]1,> 13,,> 13,> 16
Nc1nc2cc3ccccc3c-2c(Nc2cccc(Br)c2)[nH]1,,> 200,,> 14
CC(C)c1ccc(Nc2[nH]c(N)nc3cc4ccccc4c2-3)cc1,> 14,,> 14,> 16

# More lines, main results first:
IC50 (Thymidylate synthase) [µM],IC50 [3] [µM],SMILES,IC50 [1] [µM],IC50 [2] [µM]
,> 200,Nc1nc2cc3ccccc3c-2c(Nc2cccc(F)c2)[nH]1,,
,> 200,COc1cccc(Nc2[nH]c(N)nc3cc4ccccc4c2-3)c1,,
